Assay [1] addresses T1, Recombinant full-length human IDO1 (Homo sapiens, UniProt P14902).
T1 construct: Recombinant full-length human IDO1 with a N-terminal hexahistidine tag; hexahistidine (His6) (N); made in house; host or cells: E. coli
The assay can be described thus: IDO1 enzymatic assay (NFK quantified by LCMS). Format: biochemical. As to conditions: 2 nM enzyme, 5 μM L-tryptophan, pH6.5, 30 minutes pre-incubation at RT; mean values when measured multiple times; read-out: hIDO activity (IC50 in nM). In outline:
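His-tagged human IDO1 (2 nM) in pH 6.5 phosphate buffer with ascorbate, methylene blue and catalase was preincubated with compound (10 μM–0.5 nM, 0.6% DMSO) for 30 min at RT. The reaction then ran with 5 μM L-Trp for 30 min. NFK was measured by LCMS against a d5-Trp standard, and IC50 was obtained by four-parameter fit.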

Assay [2] deals with T2, Recombinant human TDO comprising amino acids 19-407 (Homo sapiens, UniProt P48775).
T2 construct: Recombinant human TDO comprising amino acids 19-407 with a N-terminal hexahistidine tag; hexahistidine (His6) (N); made in house; host or cells: E. coli
Briefly: TDO2 enzymatic assay (NFK quantified by LCMS). Format: biochemical. As to conditions: 15 nM enzyme, 200 μM L-tryptophan, pH7, 30 minutes pre-incubation at RT; mean values when measured multiple times; read-out: hTDO activity (IC50 in nM). In outline: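 NFK formed over 30 min at RT from 200 μM L-tryptophan was measured by LCMS, normalized to d5-tryptophan, after compound (0.5 nM–10 μM, duplicates, 0.6% DMSO) was preincubated 30 min with 15 nM recombinant His-tagged TDO 19-407 in phosphate buffer pH 7. IC50 from four-parameter logistic fit; repeats averaged.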

Structures are written as SMILES. Some results are limits rather than exact numbers.

T1 sequence (P14902 whole entry): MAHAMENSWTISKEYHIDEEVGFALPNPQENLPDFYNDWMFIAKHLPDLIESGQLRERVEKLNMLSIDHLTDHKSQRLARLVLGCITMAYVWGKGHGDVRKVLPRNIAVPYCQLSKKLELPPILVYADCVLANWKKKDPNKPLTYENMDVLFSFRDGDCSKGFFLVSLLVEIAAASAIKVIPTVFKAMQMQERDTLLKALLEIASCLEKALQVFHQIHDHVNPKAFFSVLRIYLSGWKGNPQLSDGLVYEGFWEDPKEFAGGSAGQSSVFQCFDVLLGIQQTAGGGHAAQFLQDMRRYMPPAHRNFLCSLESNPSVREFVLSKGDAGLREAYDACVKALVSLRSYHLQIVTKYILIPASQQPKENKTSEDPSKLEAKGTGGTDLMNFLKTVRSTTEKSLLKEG
T2 sequence (P48775 19-406 limits assumed): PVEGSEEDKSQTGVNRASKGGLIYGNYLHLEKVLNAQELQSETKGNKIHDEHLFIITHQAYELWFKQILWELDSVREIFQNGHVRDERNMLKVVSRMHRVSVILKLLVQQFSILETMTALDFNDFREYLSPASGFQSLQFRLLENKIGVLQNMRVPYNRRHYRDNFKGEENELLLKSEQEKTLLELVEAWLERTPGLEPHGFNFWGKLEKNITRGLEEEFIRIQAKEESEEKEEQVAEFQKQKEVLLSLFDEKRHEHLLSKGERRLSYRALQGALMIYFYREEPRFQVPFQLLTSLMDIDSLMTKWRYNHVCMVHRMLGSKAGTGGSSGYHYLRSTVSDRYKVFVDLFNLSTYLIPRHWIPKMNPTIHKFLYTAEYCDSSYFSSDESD

Usually IC50 stands for the concentration that inhibits the measured activity by half. With `COC(=O)c1cccc(Cn2cc(C(O)c3c(C4CC4)sc4cncn34)nn2)c1` (racemic) [Example 294, rac-3-{4-[(2-Cyclopropyl-imidazo[5,1-b]thiazol-3-yl)-hydroxy-methyl]-[1,2,3]triazol-1-ylmethyl}-benzoic acid methyl ester], the half-inhibitory concentration (IC50) in assay [1] was 35.8 nM; in assay [2] it was over 10200 nM.

For the compound `CCc1sc2cncn2c1C(O)c1cn(-c2ccc(NC(N)=O)cc2)nn1` (racemic) [Example 131, rac-(4-{4-[(2-Ethyl-imidazo[5,1-b]thiazol-3-yl)-hydroxy-methyl]-[1,2,3]triazol-1-yl}-phenyl)-urea], the 50% inhibitory concentration (IC50) in assay [1] stood at 22.3 nM; in assay [2], 2150 nM.

For `CCN(CC)S(=O)(=O)c1ccc(-n2cc(C(O)c3c(C4CC4)sc4cncn34)nn2)cc1` (racemic) [Example 238, rac-4-{4-[(2-Cyclopropyl-imidazo[5,1-b]thiazol-3-yl)-hydroxy-methyl]-[1,2,3]triazol-1-yl}-N,N-diethyl-benzenesulfonamide], the half-inhibitory concentration (IC50) was 137 nM in assay [1] and over 10200 nM in assay [2].

For `OC(c1cn(-c2ccc3cc[nH]c3c2)nn1)c1c(C2CC2)sc2cncn12` (racemic) [Example 21, rac-(2-Cyclopropyl-imidazo[5,1-b]thiazol-3-yl)-[1-(1H-indol-6-yl)-1H-[1,2,3]triazol-4-yl]-methanol], the IC50 in assay [1] was 18.1 nM; in assay [2], over 10200 nM.

Turning to `Oc1ccc(-n2cc([C@H](O)c3c(C4CC4)sc4cncn34)nn2)cc1Cl` [Example 148a, 2-Chloro-4-{4-[(R)-(2-cyclopropyl-imidazo[5,1-b]thiazol-3-yl)-hydroxy-methyl]-[1,2,3]triazol-1-yl}-phenol], the IC50 in assay [1] is 5.25 nM; in assay [2], 4440 nM.

Consider `OC(c1cn(-c2cncc3ccccc23)nn1)c1c(C2CC2)sc2cncn12` (racemic) [Example 26, rac-(2-Cyclopropyl-imidazo[5,1-b]thiazol-3-yl)-(1-isoquinolin-4-yl-1H-[1,2,3]triazol-4-yl)-methanol], for which the IC50 in assay [1] was determined as 5.68 nM; in assay [2] it was 4190 nM.

On to `Cn1nncc1-c1ccc(C(O)c2c(C3CC3)sc3cncn23)s1` (racemic) [Example 174, rac-(2-Cyclopropyl-imidazo[5,1-b]thiazol-3-yl)-[5-(3-methyl-3H-[1,2,3]triazol-4-yl)-thiophen-2-yl]-methanol], for which the 50% inhibitory concentration (IC50) in assay [1] is 279 nM; in assay [2] it was 7710 nM.

Turning to `Oc1cc(-n2cc(C(O)c3c(C4CC4)sc4cncn34)nn2)cc(C(F)(F)F)c1` (racemic) [Example 219, rac-3-{4-[(2-Cyclopropyl-imidazo[5,1-b]thiazol-3-yl)-hydroxy-methyl]-[1,2,3]triazol-1-yl}-5-trifluoromethyl-phenol], the IC50 in assay [1] was 63.2 nM; in assay [2], over 10200 nM.

For the compound `N#Cc1cccc(-c2ccc(C(O)c3c(C4CC4)sc4cncn34)s2)c1` (racemic) [Example 159, rac-3-{5-[(2-Cyclopropyl-imidazo[5,1-b]thiazol-3-yl)-hydroxy-methyl]-thiophen-2-yl}-benzonitrile], the IC50 stood at 238 nM in assay [1] and 8310 nM in assay [2].

`CC(=O)Nc1ccc(-n2cc(C(O)c3c(C4CC4)sc4cncn34)cn2)cc1` (racemic) [Example 224, rac-N-(4-{4-[(2-Cyclopropyl-imidazo[5,1-b]thiazol-3-yl)-hydroxy-methyl]-pyrazol-1-yl}-phenyl)-acetamide]: the IC50 is 1100 nM in assay [1] and over 10200 nM in assay [2].

With `COc1ccccc1-c1ccc(C(O)c2c(C3CC3)sc3cncn23)s1` (racemic) [Example 166, rac-(2-Cyclopropyl-imidazo[5,1-b]thiazol-3-yl)-[5-(2-methoxy-phenyl)-thiophen-2-yl]-methanol], the results for the concentration for half-maximal inhibition (IC50) in assay [1] and in assay [2] were 587 nM and over 10200 nM, respectively.

For `O=[N+]([O-])c1cc(-n2cc(C(O)c3c(-c4ccccc4)sc4cncn34)nn2)ccc1O` (racemic) [Example 250, rac-4-{4-[Hydroxy-(2-phenyl-imidazo[5,1-b]thiazol-3-yl)-methyl]-[1,2,3]triazol-1-yl}-2-nitro-phenol], the IC50 in assay [1] was 23.8 nM; in assay [2], 2300 nM.

As to `COc1cc(-n2cc(C(O)c3c(C4CC4)sc4cncn34)nn2)cc(C#N)c1OC` (racemic) [Example 198, rac-5-{4-[(2-Cyclopropyl-imidazo[5,1-b]thiazol-3-yl)-hydroxy-methyl]-[1,2,3]triazol-1-yl}-2,3-dimethoxy-benzonitrile], the IC50 in assay [1] was 52.4 nM; in assay [2] it was over 10200 nM.

With `Oc1cc(F)c(-n2cc(C(O)c3c(C4CC4)sc4cncn34)nn2)cc1F` (racemic) [Example 331, rac-4-{4-[(2-Cyclopropyl-imidazo[5,1-b]thiazol-3-yl)-hydroxy-methyl]-[1,2,3]triazol-1-yl}-2,5-difluoro-phenol], the IC50 in assay [1] is 4.55 nM; in assay [2] it was 7180 nM.

As for `COc1ccc(-n2nnc(C(O)c3c(C4CC4)sc4cncn34)c2C(C)(C)C)cc1` (racemic) [Example 274, rac-[5-tert-Butyl-1-(4-methoxy-phenyl)-1H-[1,2,3]triazol-4-yl]-(2-cyclopropyl-imidazo[5,1-b]thiazol-3-yl)-methanol], the IC50 was 36 nM in assay [1] and over 10200 nM in assay [2].

As to `CC1(c2sc3cncn3c2C(O)c2cn(-c3ccc(OCC4(F)COC4)c(Cl)c3)nn2)CC1` (racemic) [Example 315, rac-{1-[3-Chloro-4-(3-fluoro-oxetan-3-ylmethoxy)-phenyl]-1H-[1,2,3]triazol-4-yl}-[2-(1-methyl-cyclopropyl)-imidazo[5,1-b]thiazol-3-yl]-methanol], the IC50 in assay [1] is 19.5 nM; in assay [2], over 10200 nM.

With `CC(F)(F)c1sc2cncn2c1C(O)c1cn(-c2ccc(O)c(Cl)c2)nn1` (racemic) [Example 329, rac-2-Chloro-4-(4-{[2-(1,1-difluoro-ethyl)-imidazo[5,1-b]thiazol-3-yl]-hydroxy-methyl}-[1,2,3]triazol-1-yl)-phenol], the IC50 worked out at 2.49 nM in assay [1] and 9930 nM in assay [2].

Consider `COc1ccc(-n2nnc(C(O)c3c(C4CC4)sc4cncn34)c2C)cc1` (racemic) [Example 252, rac-(2-Cyclopropyl-imidazo[5,1-b]thiazol-3-yl)-[1-(4-methoxy-phenyl)-5-methyl-1H-[1,2,3]triazol-4-yl]-methanol], for which the half-inhibitory concentration (IC50) in assay [1] was determined as 4.13 nM; in assay [2], 7010 nM.

Regarding `O[C@@H](c1cn(-c2ccc(OCC3CC3)cc2)nn1)c1c(C2CC2)sc2cncn12` [Example 35a, (R)-(2-Cyclopropyl-imidazo[5,1-b]thiazol-3-yl)-[1-(4-cyclopropylmethoxy-phenyl)-1H-[1,2,3]triazol-4-yl]-methanol], the IC50 in assay [1] is 9.7 nM; in assay [2], over 10200 nM.

In the case of `COc1ccc(-n2cc(C(O)c3c(C4CC4)sc4cncn34)nn2)cc1O` (racemic) [Example 216, rac-5-{4-[(2-Cyclopropyl-imidazo[5,1-b]thiazol-3-yl)-hydroxy-methyl]-[1,2,3]triazol-1-yl}-2-methoxy-phenol], the results for the concentration for half-maximal inhibition (IC50) in assay [1] and in assay [2] were 29.1 nM and over 10200 nM, respectively.

`N#Cc1cccc(-n2cc(C(O)c3c(C4CC4)sc4cncn34)nn2)c1` (racemic) [Example 18, rac-3-{4-[(2-Cyclopropyl-imidazo[5,1-b]thiazol-3-yl)-hydroxy-methyl]-[1,2,3]triazol-1-yl}-benzonitrile]: the IC50 was 9.32 nM in assay [1] and over 10200 nM in assay [2].

For the compound `Cc1cc(O)ccc1-n1cc(C(O)c2c(C3CC3)sc3cncn23)nn1` (racemic) [Example 207, rac-4-{4-[(2-Cyclopropyl-imidazo[5,1-b]thiazol-3-yl)-hydroxy-methyl]-[1,2,3]triazol-1-yl}-3-methyl-phenol], the half-inhibitory concentration (IC50) was 26.9 nM in assay [1] and over 10200 nM in assay [2].

For `CC(C)Oc1ncc(-n2cc(C(O)c3c(C4CC4)sc4cncn34)nn2)cc1Cl` (racemic) [Example 73, rac-[1-(5-Chloro-6-isopropoxy-pyridin-3-yl)-1H-[1,2,3]triazol-4-yl]-(2-cyclopropyl-imidazo[5,1-b]thiazol-3-yl)-methanol], the IC50 in assay [1] was 36.1 nM; in assay [2], over 10200 nM.

For `OC(c1cn(-c2cnc(OC3CCC3)nc2)nn1)c1c(C2CC2)sc2cncn12` (racemic) [Example 83, rac-[1-(2-Cyclobutoxy-pyrimidin-5-yl)-1H-[1,2,3]triazol-4-yl]-(2-cyclopropyl-imidazo[5,1-b]thiazol-3-yl)-methanol], the figures for the IC50 in assay [1] and in assay [2] were 10.9 nM and over 10200 nM, respectively.

With `CCc1sc2cncn2c1C(O)c1cn(-c2ccc(C(=O)NCCOC)cc2)nn1` (racemic) [Example 196, rac-4-{4-[(2-Ethyl-imidazo[5,1-b]thiazol-3-yl)-hydroxy-methyl]-[1,2,3]triazol-1-yl}-N-(2-methoxy-ethyl)-benzamide], the IC50 was 17.1 nM in assay [1] and over 10200 nM in assay [2].

Consider `CCc1sc2cncn2c1C(O)c1cn(-c2ccc(OCC3(F)COC3)c(Cl)c2)nn1` (racemic) [Example 317, rac-{1-[3-Chloro-4-(3-fluoro-oxetan-3-ylmethoxy)-phenyl]-1H-[1,2,3]triazol-4-yl}-(2-ethyl-imidazo[5,1-b]thiazol-3-yl)-methanol], for which the results for the IC50 in assay [1] and in assay [2] were 7.18 nM and over 10200 nM, respectively.

For the origin of these results see patent US20200405696A1, “INHIBITORS OF INDOLEAMINE 2,3-DIOXYGENASE AND/OR TRYPTOPHAN 2,3-DIOXYGENASE” (IDORSIA PHARMACEUTICALS LTD, priority 2018, published 2020).
